Our source for the IC50 values is patent US8143393B2, “Substituted 4-amino-pyrrolotriazine derivatives useful for treating hyper-proliferative disorders and diseases associated with angiogenesis” (Bayer HealthCare LLC, priority 2005, dated 2012).

Broadly, the IC50 is the midpoint of a concentration-inhibition curve.

One experiment addresses T1, FGFR-1 (Homo sapiens, UniProt P11362).
T1 construct: GST; made in house
In words: FGFR-1 TR-FRET biochemical assay. The note with it: 0.6 uM ATP, 5 nM FGFR1-GST; bounds given in nM. The method, boiled down: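 In this LANCE time-resolved FRET format, compounds at final 10 μM–0.128 nM (1% DMSO, 1:5 series) were preincubated before enzyme start. Reactions ran for one hour at room temperature with 0.6 uM ATP, 25 nM biotinylated poly GT and 5 nM GST-tagged FGFR1. Inhibition was calculated from the 665/615 nm ratio minus the ATP-free background.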

The test system of another experiment is H460. The experiment is described as follows: Tumor cell proliferation (H460 proliferation assay). It is filed as cell-based. The note with it: Homo sapiens, NCI-H460, 72 h, Alamar Blue. As to the method: (§1) Human tumor cells (e.g., HCT116 or MDA-MB-231 cells), were seeded in a Costar 96-well plate at 3.0×10^3 cells/well and grown in 150 μl of RPMI complete media (Invitrogen Corporation, Grand Island, N.Y.) containing 10% fetal bovine serum (Hyclone, Logan, Utah) at 37° C. for 16 h in an incubator with 5% CO2. To each well, 50 μl of additional growth media containing 40 μM to 18 nM concentrations of compound with 0.4% DMSO was added. Cells were grown for another 72 h at 37° C. with 5% CO2. 20 μl of Alamar Blue (Trek Diagnostic Systems, Inc., Cleveland, Ohio) reagent was added to each well and incubated for 3 h at 37° C. Plates were read in a SpectraMax Gemini (Molecular Devices, CA) with 544 nm excitation and 590 nm emission wavelength. IC50 values were determined by linear regression analysis of log drug concentration versus percent inhibition.
On the technique in general: The colour change of resazurin is a common sign of viable cells or microbes.

The subject of a further experiment is HCT116 cells. In words: Tumor cell proliferation (HCT116 proliferation assay). It is filed as cell-based. To be noted: Homo sapiens, HCT-116, 72 h, Alamar Blue. The method, then:
as §1

For the next experiment, the system named is MDA-MB-231 cells. In words: Tumor cell proliferation (MDA-MB-231 proliferation assay). Format: cell-based. The note with it: Homo sapiens, MDA-MB-231, 72 h, Alamar Blue. As to the method: as §1
The test system of experiment [1] is histone 3 phosphorylation in colon carcinoma (HCT116). The experiment is described as follows: p-Histone3 assay. It is filed as cell-based. The note with it: Homo sapiens, HCT-116, 24 h, HCT116, 24 h treatment. As to the method:
Compounds were assayed for the inhibition of histone 3 phosphorylation in colon carcinoma (HCT116). Briefly, 20,000 cells/well were seeded in a 96-well black-walled, poly-d-lysine plates in RPMI+10% FBS and incubated at 37° C. in 5% CO2 overnight. The following day, the cells were treated with compounds for 24 hours at 37° C. Following compound treatment; plates were centrifuged at 1000 rpm for 2 minutes and washed twice with 100 μl of cold sterile TBS. Cells were then fixed with cold 3.7% formaldehyde in TBS (4° C. for 1 hour) and then permeabolized with 0.1% Triton-X-100 in TBS (room temperature for 30 minutes). Plates were then washed with of 0.25% BSA-TBS and blocked with BSA solution for 1 hour at room temperature while shaking. The supernatant was removed and replaced with diluted primary antibody (anti-phospho-histone 3, serine 10, Cell Signaling) at 1:250 in 0.25% BSA-TBS and incubated overnight at 4° C. The plates were washed and treated with diluted secondary antibody (anti-rabbit Eu-labeled) at 1:10000 in 0.25% BSA-TBS (room temperature for 1 hour). The antibody solution was removed from each well and washed eight times. The wash buffer was replaced with 50 μl pre-warmed enhancement solution and mixed on the orbital shaker for 10 minutes. Fluorescence was detected with a Victor V Fluorescence Detector. The data are expressed as percent inhibition: % inhibition=100−((Signal with inhibitor−background)/(Signal without inhibitor−background))−100.

Where [2] appears, read: lower bound of the bin 'greater than 500 nM but less than 4 μM'.
The mark [3] stands for this setting: upper bound of the bin 'greater than 500 nM but less than 4 μM'.
Where [4] appears, read: lower bound of the bin 'greater than 500 nM but less than 3 μM'.
[5] abbreviates: upper bound of the bin 'greater than 500 nM but less than 3 μM'.

T1 sequence (P11362 22-822): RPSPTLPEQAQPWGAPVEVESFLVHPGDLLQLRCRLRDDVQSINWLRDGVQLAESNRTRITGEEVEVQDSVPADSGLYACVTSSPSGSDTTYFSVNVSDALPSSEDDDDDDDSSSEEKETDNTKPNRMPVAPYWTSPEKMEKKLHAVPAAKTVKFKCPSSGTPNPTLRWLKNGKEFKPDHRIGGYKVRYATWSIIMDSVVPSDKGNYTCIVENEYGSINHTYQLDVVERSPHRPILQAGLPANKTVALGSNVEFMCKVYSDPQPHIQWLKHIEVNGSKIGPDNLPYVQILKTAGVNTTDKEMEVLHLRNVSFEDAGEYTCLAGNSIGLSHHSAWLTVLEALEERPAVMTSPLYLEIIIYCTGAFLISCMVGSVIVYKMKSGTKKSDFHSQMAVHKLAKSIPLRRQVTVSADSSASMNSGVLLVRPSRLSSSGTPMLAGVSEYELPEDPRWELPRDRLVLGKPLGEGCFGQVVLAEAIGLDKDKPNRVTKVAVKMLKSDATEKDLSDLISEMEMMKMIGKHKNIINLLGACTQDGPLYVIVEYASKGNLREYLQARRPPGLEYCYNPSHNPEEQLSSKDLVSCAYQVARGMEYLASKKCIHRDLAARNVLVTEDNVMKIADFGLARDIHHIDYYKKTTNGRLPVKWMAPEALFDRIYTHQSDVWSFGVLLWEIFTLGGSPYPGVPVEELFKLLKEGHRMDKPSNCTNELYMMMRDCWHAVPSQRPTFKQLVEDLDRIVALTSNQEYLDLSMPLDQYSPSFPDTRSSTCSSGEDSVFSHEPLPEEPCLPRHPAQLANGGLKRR

Take `Nc1ncnn2c(CN3CCOCC3)cc(-c3ccc(NC(=O)Nc4cc(C(F)(F)F)ccc4F)c(F)c3)c12` [Example 1]: the values for the IC50 at FGFR-1, in the experiment with H460 (setting [2]) and with H460 (setting [3]) were < 10 nM, > 500 nM and < 4000 nM, respectively.
For the compound `Nc1ncnn2c(CN3CCOCC3)cc(-c3ccc(NC(=O)Nc4cc(C(F)(F)F)ccn4)cc3)c12` [Example 3, N-{4-[4-amino-7-(morpholin-4-ylmethyl)pyrrolo[2,1-f][1,2,4]triazin-5-yl]phenyl}-N′-[4-(trifluoromethyl)pyridin-2-yl]urea], the IC50 was < 10 nM against FGFR-1; > 500 nM with H460 (setting [2]); < 4000 nM in the experiment with H460 (setting [3]); > 500 nM with HCT116 cells (setting [2]); < 4000 nM in the experiment with HCT116 cells (setting [3]); > 500 nM with MDA-MB-231 cells (setting [4]). Further, the concentration for half-maximal inhibition (IC50) with MDA-MB-231 cells (setting [5]) was < 3000 nM.
For `Nc1ncnn2c(CN3CCOCC3)cc(-c3ccc(NC(=O)Nc4cc(C(F)(F)F)ccc4F)cc3)c12` [Example 4, N-{4-[4-amino-7-(morpholin-4-ylmethyl)-pyrrolo[2,1-f][1,2,4]triazin-5-yl]phenyl}-N′-[2-fluoro-5-(trifluoromethyl)phenyl]urea], the IC50 was < 10 nM on FGFR-1; > 500 nM in the experiment on HCT116 cells (setting [2]); < 4000 nM in the experiment on HCT116 cells (setting [3]); > 500 nM in the experiment on MDA-MB-231 cells (setting [4]); < 3000 nM with MDA-MB-231 cells (setting [5]); < 5 µM in experiment [1] (bounds given in μM). Moreover, in experiment [1] (lower bound of the bin 'greater than 500 nM but less than 5 μM'), the IC50 is > 0.5 µM.
`Nc1ncnn2c(CN3CCOCC3)cc(-c3ccc(NC(=O)Nc4cccc(C(F)(F)F)c4)cc3)c12` [Example 5, N-{4-[4-amino-7-(morpholin-4-ylmethyl)-pyrrolo[2,1-f][1,2,4]triazin-5-yl]phenyl}-N′-[3-(trifluoromethyl)phenyl]urea]: the IC50 is > 500 nM with H460 (setting [2]); < 4000 nM with H460 (setting [3]); > 500 nM in the experiment with HCT116 cells (setting [2]); < 4000 nM in the experiment on HCT116 cells (setting [3]); > 500 nM in the experiment on MDA-MB-231 cells (setting [4]); < 3000 nM in the experiment with MDA-MB-231 cells (setting [5]).
Turning to `Nc1ncnn2c(CN3CCOCC3)cc(-c3ccc(NC(=O)Nc4ccc(F)c(C(F)(F)F)c4)cc3)c12` [Example 6, N-{4-[4-amino-7-(morpholin-4-ylmethyl)-pyrrolo[2,1-f][1,2,4]triazin-5-yl]phenyl}-N′-[4-fluoro-3-(trifluoromethyl)phenyl]urea], the half-maximal inhibitory concentration (IC50) against FGFR-1 was < 10 nM; in the experiment with H460 (setting [2]), > 500 nM; in the experiment on H460 (setting [3]) it was < 4000 nM; with HCT116 cells (setting [2]), > 500 nM; with HCT116 cells (setting [3]), < 4000 nM; with MDA-MB-231 cells (setting [4]), > 500 nM. For the same compound, the IC50 with MDA-MB-231 cells (setting [5]) is < 3000 nM.
As to `Nc1ncnn2c(CN3CCOCC3)cc(-c3ccc(NC(=O)Nc4cc(C(F)(F)F)ccn4)c(F)c3)c12` [Example 8, N-{4-[4-amino-7-(morpholin-4-ylmethyl)pyrrolo[2,1-f][1,2,4]triazin-5-yl]-2-fluorophenyl}-N′-[4-(trifluoromethyl)pyridin-2-yl]urea], the IC50 is < 10 nM on FGFR-1, > 500 nM with H460 (setting [2]) and < 4000 nM with H460 (setting [3]).
